Earlier results on 1 compound are cited in patent US20090197966A1, “Use of Hypothermia Inducing Drugs” (priority 2006, published 2009).

Where two headings read alike, the source gives them in different places.

This data set has as its system TRPV1 receptor. The conditions noted are these: systemic administration.

Turning to `COc1cc(CNC(=O)CCCC/C=C/C(C)C)ccc1O` [capsaicin, 8-methyl-N-vallilyl-6-nonenamide], the hypothermic response entry reads like this: (mammals) “dramatic hypothermic response”; (mice lacking the TRPV1 gene) “absent”.
